# Patent US20150105252A1, “SUBSTITUTED PYRAZOLES AS HERBICIDES” (E I DU PONT DE NEMOURS AND COMPANY, priority 2013, published 2015)
# What was measured:
# wheat [1] = experiment: Test C postemergence; assay type: in vivo, Triticum aestivum; settings: postemergence; for Plant response rating, Wheat: 250 g ai/ha, scale 0 to 100 (0 no effect, 100 complete control); for Wheat plant response rating: scale 0 to 100
# Outline: (§1)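 Scores of 0 (no effect) to 100 (complete control) were assigned by eye after 13–15 days, comparing treated pots with controls. Soil-applied (preemergence) treatments went onto seeds in loam and sand; foliar (postemergence) treatments onto 1- to 4-leaf plants in peat medium.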
# lambsquarters [2] = experiment: Test C postemergence; assay type: in vivo, Chenopodium album; settings: for Plant response rating (scale of 0 to 100 where 0 is no effect and 100 is complete control), Lambsquarters: Postemergence, 31 g ai/ha, visually evaluated after 13 to 15 days; for Lambsquarters plant response rating / Plant response rating, Lambsquarters: postemergence; for Lambsquarters plant response rating: 62 g ai/ha, scale 0 to 100
# Outline: as §1
# morningglory = experiment: Test C postemergence; assay type: in vivo, Ipomoea coccinea; settings: for Plant response rating (scale of 0 to 100 where 0 is no effect and 100 is complete control), Morningglory: Postemergence, 31 g ai/ha, visually evaluated after 13 to 15 days; for Morningglory plant response rating / Plant response rating, Morningglory: postemergence; for Morningglory plant response rating: 62 g ai/ha, scale 0 to 100
# Outline: as §1
# crabgrass, large = experiment: Test A postemergence; assay type: in vivo, Digitaria sanguinalis; settings: Postemergence
# Outline: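 Scoring was visual, on a scale where 100 means complete control and 0 means no effect, comparing treated with untreated plants around 10 days post-application. Compounds in surfactant-containing non-phytotoxic solvent were sprayed onto soil preemergence or onto one- to two-leaf seedlings (2–10 cm) postemergence.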
# lambsquarters [3] = experiment: Test C preemergence; assay type: in vivo, Chenopodium album
# Outline: as §1
# barnyardgrass [4] = experiment: Test B flood; assay type: in vivo, Echinochloa crus-galli; settings: 250 g ai/ha, visual rating on 0 to 100 scale (0 no effect, 100 complete control), 13 to 15 days
# Outline: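 At two leaves, seedlings received the test compound via the paddy water, pots having been flooded 3 cm over the soil surface and kept so. Greenhouse-held for 13 to 15 days, then judged by eye against controls on a scale running 0 (no effect) to 100 (complete control).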
# wheat [5] = experiment: Test C preemergence; assay type: in vivo, Triticum aestivum
# Outline: as §1
# kochia = experiment: Test C postemergence; assay type: in vivo, Kochia scoparia; settings: for Plant response rating (scale of 0 to 100 where 0 is no effect and 100 is complete control), Kochia: Postemergence, 31 g ai/ha, visually evaluated after 13 to 15 days; for Kochia plant response rating / Plant response rating, Kochia: postemergence; for Kochia plant response rating: 62 g ai/ha, scale 0 to 100
# Outline: as §1
# barnyardgrass [6] = experiment: Test C postemergence; assay type: in vivo, Echinochloa crus-galli; settings: for Plant response rating (scale of 0 to 100 where 0 is no effect and 100 is complete control), Barnyardgrass: Postemergence, 31 g ai/ha, visually evaluated after 13 to 15 days; for Barnyardgrass plant response rating / Plant response rating, Barnyardgrass: postemergence; for Barnyardgrass plant response rating: 62 g ai/ha, scale 0 to 100
# Outline: as §1
# chickweed = experiment: Test C postemergence; assay type: in vivo, Stellaria media; settings: for Plant response rating (scale of 0 to 100 where 0 is no effect and 100 is complete control), Chickweed: Postemergence, 31 g ai/ha, visually evaluated after 13 to 15 days; for Chickweed plant response rating / Plant response rating, Chickweed: postemergence; for Chickweed plant response rating: 62 g ai/ha, scale 0 to 100
# Outline: as §1
# foxtail, giant = experiment: Test C postemergence; assay type: in vivo, Setaria faberii; settings: for Plant response rating (scale of 0 to 100 where 0 is no effect and 100 is complete control), Foxtail, Giant: Postemergence, 31 g ai/ha, visually evaluated after 13 to 15 days; for Foxtail, Giant plant response rating / Plant response rating, Foxtail, Giant: postemergence; for Foxtail, Giant plant response rating: 62 g ai/ha, scale 0 to 100
# Outline: as §1
# velvetleaf = experiment: Test C preemergence; assay type: in vivo, Abutilon theophrasti
# Outline: as §1
# corn = experiment: Test C postemergence; assay type: in vivo, Zea mays; settings: for Plant response rating (scale of 0 to 100 where 0 is no effect and 100 is complete control), Corn: Postemergence, 31 g ai/ha, visually evaluated after 13 to 15 days; for Corn plant response rating / Plant response rating, Corn: postemergence; for Corn plant response rating: 62 g ai/ha, scale 0 to 100
# Outline: as §1
# [7] = 250 g ai/ha, scale 0 to 100 (0 no effect, 100 complete control)
# [8] = 125 g ai/ha, scale 0 to 100, 0 no effect, 100 complete control
# [9] = 125 g ai/ha, 0 to 100 scale, 0 no effect, 100 complete control
# [10] = 500 g ai/ha, 0 to 100 scale (0 no effect, 100 complete control)
# [11] = Preemergence, rate head not shown (block before 16 g ai/ha), scale 0 to 100
# [12] = preemergence, 62 g ai/ha, scale 0 to 100 (0 no effect, 100 complete control), 13 to 15 days
# [13] = preemergence, 125 g ai/ha, 13 to 15 days, scale 0 to 100, 0 = no effect, 100 = complete control
# [14] = preemergence, 250 g ai/ha, scale 0 to 100, 0 is no effect, 100 is complete control
# [15] = preemergence, 31 g ai/ha, visual rating, scale 0 to 100 (0 no effect, 100 complete control), 13 to 15 days
compound,measurement,setting,value
CCc1cc(C(=O)NCC(F)(F)F)nn1Cc1ccnc(Br)c1 [Compound 224],"Plant response rating, Wheat",wheat [1],5
same,Wheat plant response rating,wheat [1],0
same,"Plant response rating (scale of 0 to 100 where 0 is no effect and 100 is complete control), Lambsquarters",lambsquarters [2],35
same,Lambsquarters plant response rating,lambsquarters [2],40
same,"Plant response rating, Lambsquarters",lambsquarters [2]; [7],60
same,"Plant response rating, Lambsquarters",lambsquarters [2]; [8],45
same,"Plant response rating (scale of 0 to 100 where 0 is no effect and 100 is complete control), Morningglory",morningglory,25
same,Morningglory plant response rating,morningglory,20
same,"Plant response rating, Morningglory",morningglory; [7],65
same,"Plant response rating, Morningglory",morningglory; [8],25
same,"Crabgrass, Large plant response rating","crabgrass, large; [9]",90
same,"Crabgrass, Large plant response rating","crabgrass, large; [10]",100
same,"Plant response rating, Lambsquarters",lambsquarters [3]; [11],100
same,Lambsquarters plant response rating,lambsquarters [3]; [12],100
same,"Plant response rating, Lambsquarters",lambsquarters [3]; [13],100
same,Lambsquarters plant response rating,lambsquarters [3]; [14],100
same,"Plant response rating, Barnyardgrass",barnyardgrass [4],20
same,"Plant response rating, Wheat",wheat [5]; [11],0
same,Wheat plant response rating,wheat [5]; [12],0
same,"Plant response rating, Wheat",wheat [5]; [13],10
same,Wheat plant response rating,wheat [5]; [14],60
same,"Plant response rating (scale of 0 to 100 where 0 is no effect and 100 is complete control), Kochia",kochia,80
same,Kochia plant response rating,kochia,85
same,"Plant response rating, Kochia",kochia; [7],90
same,"Plant response rating, Kochia",kochia; [8],90
same,"Plant response rating (scale of 0 to 100 where 0 is no effect and 100 is complete control), Barnyardgrass",barnyardgrass [6],0
same,Barnyardgrass plant response rating,barnyardgrass [6],10
same,"Plant response rating, Barnyardgrass",barnyardgrass [6]; [7],10
same,"Plant response rating, Barnyardgrass",barnyardgrass [6]; [8],10
same,"Plant response rating (scale of 0 to 100 where 0 is no effect and 100 is complete control), Chickweed",chickweed,50
same,Chickweed plant response rating,chickweed,55
same,"Plant response rating, Chickweed",chickweed; [7],90
same,"Plant response rating, Chickweed",chickweed; [8],55
same,"Plant response rating (scale of 0 to 100 where 0 is no effect and 100 is complete control), Foxtail, Giant","foxtail, giant",5
same,"Foxtail, Giant plant response rating","foxtail, giant",5
same,"Plant response rating, Foxtail, Giant","foxtail, giant; [7]",5
same,"Plant response rating, Foxtail, Giant","foxtail, giant; [8]",5
same,"Plant response rating, Velvetleaf",velvetleaf; [11],40
same,Velvetleaf plant response rating,velvetleaf; [12],65
same,"Plant response rating, Velvetleaf",velvetleaf; [13],100
same,Velvetleaf plant response rating,velvetleaf; [14],100
same,"Plant response rating (scale of 0 to 100 where 0 is no effect and 100 is complete control), Corn",corn,5
same,Corn plant response rating,corn,5
same,"Plant response rating, Corn",corn; [7],10
same,"Plant response rating, Corn",corn; [8],10
CCc1cc(C(=O)NCC(F)(F)F)nn1Cc1ccnc(SC(F)(F)F)c1 [Compound 214],"Plant response rating, Wheat",wheat [1],10
same,Wheat plant response rating,wheat [1],5
same,"Plant response rating (scale of 0 to 100 where 0 is no effect and 100 is complete control), Lambsquarters",lambsquarters [2],35
same,Lambsquarters plant response rating,lambsquarters [2],50
same,"Plant response rating, Lambsquarters",lambsquarters [2]; [7],80
same,"Plant response rating, Lambsquarters",lambsquarters [2]; [8],75
same,"Plant response rating (scale of 0 to 100 where 0 is no effect and 100 is complete control), Morningglory",morningglory,75
same,Morningglory plant response rating,morningglory,95
same,"Plant response rating, Morningglory",morningglory; [7],85
same,"Plant response rating, Morningglory",morningglory; [8],85
same,"Crabgrass, Large plant response rating","crabgrass, large; [9]",100
same,"Crabgrass, Large plant response rating","crabgrass, large; [10]",100
same,Lambsquarters plant response rating,lambsquarters [3]; [15],100
same,Lambsquarters plant response rating,lambsquarters [3]; [12],100
same,"Plant response rating, Lambsquarters",lambsquarters [3]; [13],100
same,Lambsquarters plant response rating,lambsquarters [3]; [14],100
same,"Plant response rating, Barnyardgrass",barnyardgrass [4],50
same,Wheat plant response rating,wheat [5]; [15],0
same,Wheat plant response rating,wheat [5]; [12],0
same,"Plant response rating, Wheat",wheat [5]; [13],10
same,Wheat plant response rating,wheat [5]; [14],40
same,"Plant response rating (scale of 0 to 100 where 0 is no effect and 100 is complete control), Kochia",kochia,85
same,Kochia plant response rating,kochia,90
same,"Plant response rating, Kochia",kochia; [7],90
same,"Plant response rating, Kochia",kochia; [8],90
same,"Plant response rating (scale of 0 to 100 where 0 is no effect and 100 is complete control), Barnyardgrass",barnyardgrass [6],5
same,Barnyardgrass plant response rating,barnyardgrass [6],5
same,"Plant response rating, Barnyardgrass",barnyardgrass [6]; [7],65
same,"Plant response rating, Barnyardgrass",barnyardgrass [6]; [8],30
same,"Plant response rating (scale of 0 to 100 where 0 is no effect and 100 is complete control), Chickweed",chickweed,50
same,Chickweed plant response rating,chickweed,55
same,"Plant response rating, Chickweed",chickweed; [7],85
same,"Plant response rating, Chickweed",chickweed; [8],70
same,"Plant response rating (scale of 0 to 100 where 0 is no effect and 100 is complete control), Foxtail, Giant","foxtail, giant",5
same,"Foxtail, Giant plant response rating","foxtail, giant",5
same,"Plant response rating, Foxtail, Giant","foxtail, giant; [7]",20
same,"Plant response rating, Foxtail, Giant","foxtail, giant; [8]",15
same,Velvetleaf plant response rating,velvetleaf; [15],35
same,Velvetleaf plant response rating,velvetleaf; [12],100
same,"Plant response rating, Velvetleaf",velvetleaf; [13],100
same,Velvetleaf plant response rating,velvetleaf; [14],100
same,"Plant response rating (scale of 0 to 100 where 0 is no effect and 100 is complete control), Corn",corn,0
same,Corn plant response rating,corn,5
same,"Plant response rating, Corn",corn; [7],10
same,"Plant response rating, Corn",corn; [8],5
